Molecular target: T1, Mer (Homo sapiens, UniProt Q12866)
T1 construct: host or cells: 293A cells (Thermo Fisher #R70507)
T1 sequence (Q12866 21-999): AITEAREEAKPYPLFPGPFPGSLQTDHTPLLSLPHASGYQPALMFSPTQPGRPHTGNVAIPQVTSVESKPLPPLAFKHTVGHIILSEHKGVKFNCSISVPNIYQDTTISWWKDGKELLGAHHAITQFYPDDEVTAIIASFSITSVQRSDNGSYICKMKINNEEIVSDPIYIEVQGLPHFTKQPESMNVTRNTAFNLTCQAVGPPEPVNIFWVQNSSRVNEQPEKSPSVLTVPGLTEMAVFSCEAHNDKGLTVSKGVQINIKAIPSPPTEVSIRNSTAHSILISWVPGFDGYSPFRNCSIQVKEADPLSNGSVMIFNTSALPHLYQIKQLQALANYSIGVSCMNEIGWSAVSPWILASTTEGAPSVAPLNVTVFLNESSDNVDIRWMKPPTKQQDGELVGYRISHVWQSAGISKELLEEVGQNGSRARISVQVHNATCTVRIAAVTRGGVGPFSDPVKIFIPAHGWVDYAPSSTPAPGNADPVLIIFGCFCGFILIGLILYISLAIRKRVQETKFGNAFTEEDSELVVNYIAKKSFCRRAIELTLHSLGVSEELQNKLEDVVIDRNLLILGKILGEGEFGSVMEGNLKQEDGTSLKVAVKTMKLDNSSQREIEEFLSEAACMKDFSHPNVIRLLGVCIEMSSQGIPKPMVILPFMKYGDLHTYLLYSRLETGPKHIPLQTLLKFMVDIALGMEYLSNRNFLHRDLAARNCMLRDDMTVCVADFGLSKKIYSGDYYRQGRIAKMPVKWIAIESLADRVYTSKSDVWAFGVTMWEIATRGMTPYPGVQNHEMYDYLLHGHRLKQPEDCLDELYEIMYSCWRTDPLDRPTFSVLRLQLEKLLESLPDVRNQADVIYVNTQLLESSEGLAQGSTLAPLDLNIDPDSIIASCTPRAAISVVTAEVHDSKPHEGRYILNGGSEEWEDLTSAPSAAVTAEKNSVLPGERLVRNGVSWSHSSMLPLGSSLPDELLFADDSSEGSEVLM
Assay: Mer autophosphorylation ELISA in transient transfected 293A cells
Assay type: cell-based
Details: Table 3 Cellular Activities; MERTK-transfected 293A cells, phospho-Mer ELISA
Summary of the method: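 Phospho-Mer quantified by ELISA in lysates of transiently MERTK-transfected 293A cells after 1 h exposure to an 8-point compound series, serum-free, 0.3% DMSO. Activity normalized between DMSO-treated (100%) and reference inhibitor-treated (0%) lysates; IC50 via 4-parameter nonlinear regression.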

IC50, ≤ 100 nM:
COc1cc2nccc(Oc3ccc(NC(=O)c4cn(CCF)c(C)c(-c5ccsc5)c4=O)cc3F)c2nc1OC [Compound 332, N-[4-[(6,7-Dimethoxy-1,5-naphthyridin-4-yl)oxy]-3-fluorophenyl]-1-(2-fluoroethyl)-6-methyl-4-oxo-5-thiophen-3-ylpyridine-3-carboxamide]
COc1cnc2c(Oc3ccc(NC(=O)c4cnc(C)c(-c5cccs5)c4O)cc3F)ccnc2c1 [Compound 100, N-[3-Fluoro-4-[(7-methoxy-1,5-naphthyridin-4-yl)oxy]phenyl]-4-hydroxy-6-methyl-5-(2-thienyl)pyridine-3-carboxamide]
COCc1nc(C)c(-c2ccc(C)o2)c(O)c1C(=O)Nc1ccc(Oc2ccnc3cc(OC)c(OC)nc23)c(F)c1 [Compound 117, N-[4-[(6,7-Dimethoxy-1,5-naphthyridin-4-yl)oxy]-3-fluorophenyl]-4-hydroxy-2-(methoxymethyl)-6-methyl-5-(5-methylfuran-2-yl)pyridine-3-carboxamide]
COc1cc2nccc(Oc3ccc(NC(=O)c4c(C)ncc(-c5ccco5)c4O)cc3F)c2nc1OC [Compound 119, N-[4-[(6,7-Dimethoxy-1,5-naphthyridin-4-yl)oxy]-3-fluorophenyl]-5-(furan-2-yl)-4-hydroxy-2-methylpyridine-3-carboxamide]
COc1cc2nccc(Oc3ccc(NC(=O)c4cnc(C)c(-c5ccco5)c4O)cc3F)c2nc1OC [Compound 89, N-[4-[(6,7-Dimethoxy-1,5-naphthyridin-4-yl)oxy]-3-fluorophenyl]-5-(furan-2-yl)-4-hydroxy-6-methylpyridine-3-carboxamide]
COc1cnc2c(Oc3ccc(NC(=O)c4cnc(C)c(-c5ccc(C)s5)c4O)cc3F)ccnc2c1 [Compound 101, N-[3-Fluoro-4-[(7-methoxy-1,5-naphthyridin-4-yl)oxy]phenyl]-4-hydroxy-6-methyl-5-(5-methyl-2-thienyl) pyridine-3-carboxamide]
COc1cnc2c(Oc3ccc(NC(=O)c4cn(CCF)c(C)c(-c5ccc(C)s5)c4=O)cc3F)ccnc2c1 [Compound 329, 1-(2-Fluoroethyl)-N-[3-fluoro-4-[(7-methoxy-1,5-naphthyridin-4-yl)oxy]phenyl]-6-methyl-5-(5-methylthiophen-2-yl)-4-oxopyridine-3-carboxamide]
